Values joined by “and” are separate entries in the source; they are usually repeats but may differ in a detail not shown here. Equal values may be shown once.
How the values were obtained:
[1] = system: Lepeophtheirus pre-adult lice; assay: Feed trials: removal of pre-adult sea lice from fish fed medicated feed; type: in vivo; details: for Lice removed by 11 days after last day of treatment / Lice removed by 3 days after last day of treatment: Feed Trial Number One; for Lice removed by 2 days after last day of treatment / Lice removed by 9 days after last day of treatment: Feed Trial Number Two
Protocol: Empyreal™ 75, a processed corn protein concentrate, was mixed with imidacloprid to form a pre-mix. This pre-mix was then added to salmon feeds using fish oil to help coat it onto the pellets to prepare the medicated feed.
Medicated feed for fish was prepared based on the amount of feed that the fish were consuming each day to give a total dosage to different tanks of fish of 10, 20, 40, 60 and 100 milligrams of active ingredient (imidacloprid) over a 5 day period. Experiments were run using total dosages given over 5 days of feeding. A 5 day period was used to provide efficacy, convenience and safety.
Individual fish weights ranged from 62 to 188 grams.
Sea lice have a number of developmental stages on salmon of which two are pre-adults that do a lot of damage to the fish (e.g. Lepeophtheirus pre-adult I, Lepeophtheirus pre-adult II, Caligus pre-adult I, Caligus pre-adult II). Compositions were tested on the two pre-adult stages of Lepeophtheirus. The disclosed compositions are also useful for killing sea lice in the adult male and adult female and adult gravid female stage and the juvenile chalimus stages.

[2] = Tolerance of fish at five times the 20 mg/kg total dosage (mortalities, histology); type: in vivo, salmon
salmon lice = details: 100 ppm bath; in one hour; U.S. Pat. No. 5,504,081; cited from earlier work
L. salmonis = details: in-feed 1, 5 or 10 mg/kg/day for 7 days; WO 2014/064184; cited from earlier work
[3] = 8 mg/kg fish per day, total 40 mg/kg
[4] = 12 mg/kg fish per day, total 60 mg/kg
[5] = 2 mg/kg fish per day, total 10 mg/kg

Row | SMILES | Lepeophtheirus lice removed ([1]; 4 mg per kilogram per day for five days, three days into the five-day treatment) | Lice removed by 11 days after last day of treatment ([1]; 4 mg/kg fish per day, total 20 mg/kg, 16 days after treatment had started) | Lice removed by 11 days after last day of treatment ([1]; 4 mg/kg fish per day, total 20 mg/kg, 16 days after treatment had started, listed as imidacloprid) | Lice removed by 3 days after last day of treatment ([1]; 4 mg/kg fish per day, total 20 mg/kg, eight days after the treatment had started) | Lice removed by 3 days after last day of treatment ([1]; 4 mg/kg fish per day, total 20 mg/kg, eight days after the treatment had started, listed as imidacloprid) | Lice removed by 3 days after last day of treatment [1, 3] | Lice removed by 11 days after last day of treatment [1, 3] | Lice removed by 3 days after last day of treatment [1, 4] | Lice removed by 11 days after last day of treatment [1, 4] | Lice removed by 2 days after last day of treatment [1, 5] | Lice removed by 9 days after last day of treatment [1, 5] | Lice removed by 9 days after last day of treatment ([1]; 2 mg/kg fish per day, total 10 mg/kg, listed as imidacloprid) | Lice removed by 2 days after last day of treatment ([1]; 20 mg/kg fish per day, total 100 mg/kg) | removal of lice ([1]; higher dosages trialed, 40, 60 and 100 milligrams total) | abnormalities on histological examination of organs ([2]; 100 mg/kg total dosage) | mortalities ([2]; 100 mg/kg total dosage (five times the 20 mg/kg total dosage)) | lice killed (salmon lice) | sea lice elimination (L. salmonis)
1 | O=[N+]([O-])NC1=NCCN1Cc1ccc(Cl)nc1 [Imidacloprid, (2E)-1-((6-chloropyridin-3-yl)methyl)-N-nitroimidazolidin-2-imine] | 13.6% | 100% | 100% | 96.70% and 96.75% | 96.75% | 97.84% | 97.84%^ | 100% | 100% | 64.28% | 77.67% | 77.7% | 88.37% | very effective removal of lice | no abnormalities detectable | no mortalities | 100% | –
2 | CN/C(=N\[N+](=O)[O-])NCc1cnc(Cl)s1 [clothianidin] | – | – | – | – | – | – | – | – | – | – | – | – | – | – | – | – | – | full sea lice elimination
